Laboratory results: patent US12275734B1, “Pleuromutilin onium salt derivative containing a 3H-imidazo[4,5-c]pyridine side chain, and a preparation method and application thereof” (SHAANXI UNIVERSITY OF SCIENCE AND TECHNOLOGY, priority 2024, dated 2025)

What was measured:
[1] = tested on: MRSA (ATCC 33591); assay: Time-kill curve; format: cell-based, S. aureus; details: 1×MIC to 8×MIC, 0-24 hours
Description: Based on the MIC test results, the best performing active compounds were selected for time-kill curve studies.
(2) Sampling: At 0, 2, 4, 6, 8, 12, and 24 hours, aspirate 100 μL of the mixture
(3) Serial dilution and coating: Use 10 mM PBS buffer to dilute 10 times continuously, and evenly coat the diluted liquid on the agar plate
(4) Incubation and counting: Incubate in a 37° C. incubator for 24 hours and count the colonies.
(5) Sterilization curve drawing: Draw the curve of colony count change over time at different compound concentrations, and record the results as shown in FIG. 1.

[2] = tested on: E. coli (ATCC 25922); assay: Intracellular and extracellular ATP concentration; format: cell-based
Description: The intracellular and extracellular ATP levels refer to the concentration of ATP inside and outside the cell. Under normal physiological conditions, ATP is mainly produced inside the cell and released outside the cell when needed. This dynamic change is very important for maintaining normal biological homeostasis.
Determine the intracellular ATP concentration using the ATP assay kit:
Secondly, the bacterial suspension was treated with different concentrations of compound i, and a blank control group was set up. Next, the samples were incubated at 37° C. and the cells were lysed by ultrasound to extract ATP. After that, the supernatant was collected by high-speed centrifugation and ATP detection was performed, which involved adding the detection solution and compound to a 96-well plate and using a reader to measure the light intensity. Finally, data analysis and statistics were performed to evaluate the effects of the compound by comparing the ATP levels of different treatment groups.

[3] = tested on: E. coli (ATCC 25922); assay: Bacterial intracellular pH (cFDA-SE); format: cell-based; details: control 6.16±0.10
Description: The definition of pHin is based on the ratio of the pH-sensitive wavelength (490 nm) to the pH-insensitive wavelength (440 nm).
First, prepare fluorescently labeled bacterial cells. MRSA and E. coli bacteria were removed from the culture in the logarithmic growth phase, and after high-speed centrifugation and washing with HEPES buffer, the bacteria were labeled with carboxyfluorescein succinimidyl ester (cFDA-SE), and the fluorescent dye was bound to the cells by incubation.
Next, PBS buffer was used to wash and remove the unbound fluorescent dye, and then the cells were suspended in the buffer and stored in a low-temperature environment. The second step was to determine the intracellular pH. The fluorescently labeled cell suspension was added to a test tube containing different concentrations of compound i and transferred to a black opaque 96-well plate for incubation. The fluorescence value was measured at specific excitation and emission wavelengths using a full-wavelength scanning multifunctional reader to calculate the intracellular pH. The last step is the calibration of the intracellular pH. The standard curve was determined using buffer solutions with different pH values to ensure accurate determination of the pH value inside the bacterial cells. […]

[4] = tested on: E. coli (ATCC 25922); assay: Cell membrane integrity, propidium iodide staining; format: cell-based
Description: The steps for dead cell staining using propidium iodide are as follows:
At the beginning of the experiment, samples were taken from MRSA and E. coli in the logarithmic growth phase, centrifuged at 8000 rpm for 5 minutes and washed twice with 0.85% NaCl solution to remove the culture medium and other possible interfering substances. Afterwards, the bacteria were resuspended in 0.85% NaCl solution and the concentration was adjusted to approximately 1×10^8 CFU/mL.
[…] After incubation, in order to mark and distinguish dead cells, 15 μM propidium iodide solution was added to each sample and incubated in the dark for 15 minutes. PI is a fluorescent dye that binds to DNA and can only penetrate into dead cells with damaged cell membranes.
Finally, the samples were observed using a fluorescence microscope or a confocal laser scanning microscope. By setting the appropriate fluorescence channel (excitation wavelength 535 nm, emission wavelength 617 nm), the red fluorescence emitted by dead cells can be detected. In this way, the effect of compound i on the lethality of bacterial cells can be intuitively evaluated and recorded, providing an experimental basis for further drug research.

[5] = tested on: Staphylococcus aureus (MRSA, ATCC 33591); assay: Mouse MRSA systemic infection model, survival rate; format: in vivo; details: MRSA-infected mice, 5, 10, 20 mg/kg single intraperitoneal injection 1 hour after infection, 7-day survival
Description: Establishment of a mouse model of MRSA systemic infection
(1) Solution preparation and bacterial activation: Reference Example 15.
(2) Pretreatment: All mice received cyclophosphamide treatment, with the first intraperitoneal injection of 150 mg/kg cyclophosphamide 4 days before infection and the second intraperitoneal injection of 100 mg/kg cyclophosphamide 1 day before infection.
(3) Control group treatment: Mice in the blank control group received intraperitoneal injection of 0.9% saline.
(4) Infection process: Mice were anesthetized with isoflurane and infected by intraperitoneal injection of Staphylococcus aureus (MRSA, ATCC 33591) at a concentration of 10^7 CFU/mL.
(1) Experimental groups: The doses of compound i and valnemulin were 5, 10, and 20 mg/kg, respectively (the solvent was dimethyl sulfoxide: Tween-80: sterile water=1:0.5:9.5);
A model control group (administered with a solvent after infection with bacteria) and a blank control group (administered with a solvent only without infection with bacteria) were set up, with 10 mice in each group, half of which were male and half were female.
(2) Time point: Intraperitoneal injection was performed in the experimental group mice at 1 hour after infection.
(3) Therapeutic dose: The mice in the experimental groups received intraperitoneal injection of 0.5 mL of compound i and valnemulin at different concentrations. […]

[6] = tested on: MRSA (ATCC 33591); assay: Cell membrane potential, DiBAC4 (3) probe; details: 1×MIC to 8×MIC, vs blank control
[7] = tested on: E. coli (ATCC 25922); assay: Cell membrane potential, DiBAC4 (3) probe; details: 1×MIC to 8×MIC, vs blank control

In the case of `C=C[C@]1(C)C[C@@H](OC(=O)CSc2nc3cc[n+](Cc4ccc(C)cc4)cc3[nH]2)[C@]2(C)[C@H](C)CC[C@]3(CCC(=O)[C@H]32)[C@@H](C)[C@@H]1O` [Compound i, 5-(4-methylbenzyl)-2-((2-(((3aR,4R,5R,7S,8S,9R,9aS,12R)-8-hydroxy-4,7,9,12-tetramethyl-3-oxo-7-vinyldecahydro-4,9a-propancyclopenta[8]cyclo-5-yl)oxy)-2-oxoethyl)thio)-3H-imidazo[4,5-C]pyridine-5-ium], the “bactericidal efficiency (time-kill curve) compared with retapamulin” value [1] is reported as “higher bactericidal efficiency”, the “extracellular fluorescence intensity (ATP) increased by” value ([2]; 1×MIC) is reported as 4.34 times and the “intracellular fluorescence intensity (ATP) decreased by” value ([2]; 1×MIC) is reported as 50.75%. For the same compound, the “extracellular fluorescence intensity (ATP) increased by” value ([2]; 2×MIC) was 5.35 times, the “intracellular fluorescence intensity (ATP) decreased by” value ([2]; 2×MIC) was 67.87% and the “intracellular pH after treatment” value ([3]; 1×MIC) was 4.79±0.10. The “intracellular pH after treatment” value ([3]; 2×MIC) was 3.58±0.10, the “cell membrane integrity, propidium iodide red fluorescence” value ([4]; 1×MIC) was “obvious red fluorescence was observed” and the “cell membrane integrity, propidium iodide red fluorescence” value ([4]; 2×MIC) was “red fluorescence was significantly enhanced”. The “survival rate of mice” value [5] was “significantly higher than the survival rate of mice given warnemulin”, the “membrane potential, DiBAC4 (3) fluorescence intensity” value [6] was “significant dose-dependent increase” and the “membrane potential, DiBAC4 (3) fluorescence intensity” value [7] was “dose-dependent increase in fluorescence intensity”.
